Assay results taken from patent publication US20260374793A1, “MITOCHONDRIA SPECIFIC TRANSCRIPTION INHIBITORS” (LUNELLA BIOTECH, INC., priority 2023, published 2026).

Key:
[1] = system: MCF-7 cells; test: 2D colony formation, MCF-7; assay type: cell-based, human
Source text: FIGS. 2A and 2B show the effect of Compound [I] at different concentrations on MCF-7 colony formation (A) in petri dishes, and (B) expressed in terms of colony formation relative to the control.
(§1) FIGS. 5A and 5B show IC50 curves for Compound [I] calculated using GraphPad Prism. The results are based on mammosphere formation assay of Compound [I] on both colonies and spheres, for MCF-7 cells (FIG. 5A), and for MDA-MB-231 cells (FIG. 5B).

[2] = system: MDA-MB-231 cells; test: 2D colony formation, MDA-MB-231; assay type: cell-based
Source text: FIGS. 4A and 4B show the effect of Compound [I] at different concentrations on MDA-MB-231 colony formation (A) representative phase images of 2D-colonies, and (B) expressed in terms of colony formation relative to the control. […] Bar graphs are shown as the mean±SEM; t-test, two-tailed test: **** P<0.0001.
as §1

[3] = In vivo chicken embryo toxicity assessment (CAM assay); details: chicken, embryo
[4] = SRB cell viability assay, hTERT-BJ1; assay type: cell-based; details: human, hTERT-BJ1 cells, cytotoxic starting at about, FIG. 1C, read-out: concentration at which cytotoxicity starts
Source text: (§2) The mitochondria specific transcription inhibitor (MSTI) compounds disclosed herein represent a new class of compounds having exceptional selectivity and activity towards cancer cells. Embodiments of the MSTI compounds disclosed herein may be used as therapeutic agent to selectively eradicate CSCs for treating and/or preventing tumor recurrence and/or metastasis. […] This assay measures the amount of residual protein that adheres to tissue culture dishes and is a surrogate marker of cell viability.
(§3) Reagents and Model Cell Lines: It should be apparent that other cell lines may be used without departing from the present approach. The human breast adenocarcinoma cell line MCF-7 was from the American Type Culture Collection (ATCC). hTERT-BJ1 cells were from Clontech, Inc. MCF-7 and hTERT-BJ 1 cells were grown in DMEM supplemented with 10% fetal bovine serum, GlutaMAX and 1% penicillin-streptomycin and incubated at 37C in a humidified 5% C02 incubator. The medium was changed 2-3 times/week.
(§4) The present approach includes methods of confirming cell viability. Persons of skill in the art may select one or more methods for confirming cell viability suitable for the particular embodiment. […] Finally, the protein-bound dye was dissolved in a 10 mM Tris, pH 8.8 solution and read using the plate reader at 540-nm. […]

[5] = system: MCF-7 cells; test: SRB cell viability assay, MCF-7; assay type: cell-based; details: Homo sapiens, MCF7, cytotoxic starting at, FIG. 1B, read-out: concentration at which cytotoxicity starts
Source text: as §2, §3, §4

[6] = system: MCF-7 cells; test: 3D anchorage independent growth (mammosphere formation) assay, MCF-7; assay type: cell-based, human
Source text: The following paragraphs summarize data for Compound [I]. It should be appreciated that preliminary results for other embodiments are consistent with the results for Compound [I], but analysis is ongoing. FIGS. 1A-1C show mammosphere formation results, SRB assay results on MCF-7 cells, and SRB assay results on BJ1-hTERT cells, for different concentrations of Compound [I]. The asterisks indicate P-value, with ** indicating P<0.01, *** indicating P<0.001, and **** indicating P <0.0001. […] FIGS. 1B and 1C show results of the SRB assay for (B) MCF-7 cells and (C) hTERT-BJ1 cells.
as §1
(§5) 3D Anchorage Independent Growth Assay: This assay is also referred to as the mammosphere formation assay. A single-cell suspension was prepared using enzymatic, and manual disaggregation (25-g needle). Then, cells were plated at a density of 500 cells/cm^2 in mammosphere medium (DMEM-F12+1× B-27 Plus Supplement+20 ng/ml EGF+Pen/Strep) under non-adherent conditions, in culture dishes pre-coated with (2-hydroxyethylmethacrylate) (poly-HEMA, Sigma Aldrich Inc.), called “mammosphere plates.” Cells were grown for 5 days and maintained in a humidified incubator at 37 °C. After 5 days of culture, 3D-mammospheres >50 μm were counted using an eye piece (“graticule”), and the percentage of cells plated which formed spheres was calculated and is referred to as percent mammosphere formation, and was normalized to one (1=100% MFE). 3D mammosphere formation efficiency (MFE) was analyzed in both the ATP-low and ATP-high sub-populations of cells. All 3D mammosphere experiments were performed in triplicate, at least 3 times independently.

[7] = system: MDA-MB-231 cells; test: 3D anchorage independent growth (mammosphere formation) assay, MDA-MB-231; assay type: cell-based
Experimental: Bar graphs are shown as the mean±SEM; t-test, two-tailed test: * P<0.05, ** P<0.01, **** P<0.0001.
as §1, §5

[8] = system: MCF-7 cells; test: Seahorse XF96 oxygen consumption rate (OCR), mitochondrial respiration, MCF-7; assay type: cell-based, human
Experimental: FIGS. 6A-6D show mitochondrial respiration, basal respiration, maximal respiration, and ATP production, respectively, for different concentrations of Compound [I] on MCF-7 cells. The metabolic profile MCF-7 was performed using the Seahorse XF96 Analyzer after 6 days of treatment with Compound [I].

[9] = system: chicken embryo; test: In vivo chicken embryo toxicity assessment (CAM assay)
[10] = system: MDA-MB-231 cells; test: CAM assay in chicken eggs, spontaneous tumor metastasis (qPCR of human Alu sequences); assay type: in vivo; details: daily for 8 days, Lower CAM, FIG. 8B
Experimental: The CAM assay was used in chicken eggs to quantitatively measure spontaneous tumor metastasis in MDA-MB-231 cells. An inoculum of 1×10^6 MDA-MB-231 cells was added onto the Upper CAM of each egg on Day 9 and then eggs were then randomized into groups. On day 10, tumors were detectable and they were then treated daily for 8 days, with vehicle alone (1% DMSO in PBS), or Compound [I]. After 8 days of drug administration, the Lower CAM was collected to evaluate the number of metastatic cells and analyzed by qPCR with specific primers for Human Alu sequences. […] Bar graph is shown as the mean±SEM; t-test, two tailed test: ns P >0.05, ** P <0.01.

[11] = system: MCF-7 cells; test: Extracellular acidification rate (ECAR), glycolytic function, MCF-7; assay type: cell-based, human
Source text: FIGS. 7A-7D show glycolytic function, glycolysis, glycolytic capacity, and glycolytic reserve, respectively, for different concentrations of Compound [I] on MCF-7 cells.

[12] = system: MDA-MB-231 cells; test: Chorio-allantoic membrane (CAM) assay in chicken eggs, tumor growth; assay type: in vivo; details: daily for 8 days; tumors weighed day E18; FIG. 8A
Experimental: The well-established chorio-allantoic membrane (CAM) assay in chicken eggs were used to quantitatively measure tumor growth in MDA-MB-231 cells. An inoculum of 1×10^6 MDA-MB-231 cells was added onto the Upper CAM of each egg on Day 9 and then eggs were then randomized into groups. On day 10, tumors were detectable and were then treated daily for 8 days with vehicle alone (1% DMSO in PBS), or Compound [I]. After 8 days of drug administration, on day E18, all tumors were weighed. […] Bar graphs are shown as the mean±SEM; t-test, two tailed test: * P<0.05, **** P<0.0001.

[13] = system: human cancer cell xenografts; details: oral; cited from earlier work
[14] = system: mitochondrial RNA polymerase (POLRMT); details: as a POLRMT inhibitor; cited from earlier work
[15] = system: mice; details: oral; four-week trial in mice; cited from earlier work

Which results are given for `CCN(CC(=O)NCCN(C)C)C(=O)[C@@H](C)Oc1ccc2c(-c3ccc(NC(=O)CCCCCCCCCCC[P+](c4ccccc4)(c4ccccc4)c4ccccc4)cc3Cl)cc(=O)oc2c1.[Cl-]` [Compound [I], [12-[3-chloro-4-[7-[(1R)-2-[2-[2-(dimethylamino)ethylamino]-2-oxo-ethyl]-ethyl-amino]-1-methyl-2-oxo-ethoxy]-2-oxo-chromen-4-yl]anilino]-12-oxo-dodecyl]-triphenyl-phosphonium chloride]?
IC50 ([1]; Homo sapiens, MCF7, MCF-7 colonies, GraphPad Prism, FIG. 5A): 0.7 µM; IC100 ([1]; Homo sapiens, MCF7, complete inhibition, FIG. 2B, read-out: concentration from which MCF-7 colony formation is completely inhibited): 2.5 µM; IC50 ([2]; Homo sapiens, MDA-MB-231 colonies, GraphPad Prism, FIG. 5B): 1.5 µM; survival at 100 µM ([3]; 100 μM, read-out: % Alive): 100%; mortality at 100 µM ([3]; 100 μM, read-out: % Dead): 0%; survival at 250 µM ([3]; 250 μM, read-out: % Alive): 100%; mortality at 250 µM ([3]; 250 μM, read-out: % Dead): 0%; survival at 500 µM ([3]; 500 μM, read-out: % Alive): 87.5%; mortality at 500 µM ([3]; 500 μM, read-out: % Dead): 12.5%; MCC [4]: ~2500 nM; MCC [5]: 1000 nM; inhibition at 2.5 µM ([6]; Homo sapiens, MCF7, 2.5 μM, FIG. 1A, read-out: inhibition of MCF-7 spheres): > 50%; IC50 ([6]; Homo sapiens, MCF7, MCF-7 spheres, GraphPad Prism, FIG. 5A): 3.2 µM; IC50 ([7]; Homo sapiens, MDA-MB-231 spheres, GraphPad Prism, FIG. 5B): 8.2 µM

Which results are given for `CCN(CC(=O)NCCN(C)C)C(=O)[C@@H](C)Oc1ccc2c(-c3ccc(NC(=O)CCCCCCCCCCC[P+](c4ccccc4)(c4ccccc4)c4ccccc4)cc3Cl)cc(=O)oc2c1.[Cl-]` [Compound [I]]?
oxygen consumption rate (OCR) ([8]; 0.5 μM and 1 μM, after 6 days of treatment, FIG. 6A): reduction; basal respiration ([8]; 0.5 μM and 1 μM, after 6 days of treatment, FIG. 6B): decreases; maximal respiration ([8]; 0.5 μM and 1 μM, after 6 days of treatment, FIG. 6C): decreases; ATP production ([8]; 0.5 μM and 1 μM, after 6 days of treatment, FIG. 6D): decreases; mitochondrial respiration ([8]; overall conclusion): specifically inhibits mitochondrial respiration; MCF-7 colony formation ([1]; 2D colonies, FIG. 2A): significantly decreased; effect on colony formation versus sphere formation ([1]; MCF-7, from IC50 values of Table 1): more effective on colony formation, as compared to sphere formation; MDA-MB-231 colony formation ([2]; 2D colonies, FIGS. 4A-4B, **** P<0.0001): significantly decreases; effect on colony formation versus sphere formation ([2]; MDA-MB-231, from IC50 values of Table 1): more effective on colony formation, as compared to sphere formation; Alive ([9]; 100 μM, of 17 embryos): 17; Dead ([9]; 100 μM, of 17 embryos): 0; Alive ([9]; 250 μM, of 16 embryos): 16; Dead ([9]; 250 μM, of 16 embryos): 0; Alive ([9]; 500 μM, of 16 embryos): 14; Dead ([9]; 500 μM, of 16 embryos): 2; toxicity towards normal cells ([9]; at concentrations several orders of magnitude above those with potent activity, FIG. 9): not toxic towards normal cells; inhibition of MCF-7 spheres ([6]; 10 μM, FIG. 1A): near complete inhibition; inhibition of MCF-7 spheres ([6]; at all concentrations, FIG. 1A): inhibition of MCF-7 spheres at all concentrations; metastasis [10]: targets and prevent cancer metastasis; glycolysis ([11]; FIG. 7B): No significant changes; glycolytic capacity ([11]; FIG. 7C): No significant changes; glycolytic reserve ([11]; FIG. 7D): No significant changes; glycolysis (overall conclusion) ([11]; FIGS. 7A-7D): does not affect glycolysis; MDA-MB-231 3D mammosphere formation ([7]; FIG. 3A): significantly decreased; tumor growth [12]: potently inhibits tumor growth

Which anti-tumor effects [13] does the source give for `C[C@@H](Oc1ccc2c(-c3ccc(F)cc3Cl)cc(=O)oc2c1)C(=O)N1CCC[C@H](C(=O)O)C1` [POLRMT inhibitor] here?
Its anti-tumor effects is “strong anti-tumor effects”.

What about the “mitochondrial DNA expression” value [14] of the same molecule?
Its value is “inhibits mitochondrial DNA expression”.

And the “OXPHOS dysfunction or toxicity” value [15]?
The value was “no evidence of OXPHOS dysfunction or toxicity”.
